Experimental findings from patent US12516058B2, “Small-molecule compounds for controlling endosomal toll-like receptors and therapeutic agent for autoimmune diseases using same” (priority 2020, dated 2026) are described below.

Entries after “also recorded” stand apart in the source; their conditions may differ.

For the first test, the target named is T1, TLR9 (Mus musculus, UniProt Q9EQU3).
T1 construct: endogenous in cells; host or cells: RAW 264.7
T1 sequence (Q9EQU3 26-1032): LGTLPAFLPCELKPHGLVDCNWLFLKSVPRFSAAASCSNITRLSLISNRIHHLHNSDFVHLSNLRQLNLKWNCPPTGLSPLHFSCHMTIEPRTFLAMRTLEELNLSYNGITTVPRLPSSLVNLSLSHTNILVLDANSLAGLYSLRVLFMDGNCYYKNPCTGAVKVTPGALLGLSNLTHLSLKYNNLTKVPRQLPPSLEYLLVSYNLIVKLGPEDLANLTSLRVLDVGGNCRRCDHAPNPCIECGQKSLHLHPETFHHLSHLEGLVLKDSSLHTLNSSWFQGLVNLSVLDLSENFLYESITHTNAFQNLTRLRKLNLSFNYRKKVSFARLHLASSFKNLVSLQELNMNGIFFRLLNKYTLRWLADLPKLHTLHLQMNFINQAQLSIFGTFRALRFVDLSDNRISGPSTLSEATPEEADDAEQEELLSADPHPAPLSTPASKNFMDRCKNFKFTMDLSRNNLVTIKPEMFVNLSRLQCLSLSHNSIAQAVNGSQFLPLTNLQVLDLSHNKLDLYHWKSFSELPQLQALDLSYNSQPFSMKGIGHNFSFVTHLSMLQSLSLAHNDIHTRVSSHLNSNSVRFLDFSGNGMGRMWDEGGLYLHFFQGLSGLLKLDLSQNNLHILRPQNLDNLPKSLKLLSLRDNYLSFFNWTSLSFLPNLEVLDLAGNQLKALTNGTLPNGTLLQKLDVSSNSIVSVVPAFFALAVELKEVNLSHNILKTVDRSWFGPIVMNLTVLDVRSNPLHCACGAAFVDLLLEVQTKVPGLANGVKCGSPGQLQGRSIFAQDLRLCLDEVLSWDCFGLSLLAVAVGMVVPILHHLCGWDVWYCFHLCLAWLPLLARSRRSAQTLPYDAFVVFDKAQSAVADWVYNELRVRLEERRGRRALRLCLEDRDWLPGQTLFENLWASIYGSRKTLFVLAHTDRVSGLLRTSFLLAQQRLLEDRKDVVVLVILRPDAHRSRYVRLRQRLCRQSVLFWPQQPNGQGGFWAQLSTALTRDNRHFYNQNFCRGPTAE
Briefly: TNF-α secretion ELISA after TLR9 agonist ODN2395 in RAW 264.7 cells. The note with it: SK01 and structural derivatives, inhibitor 1 h, then ODN2395 4 h. The class given is cell-based.
For `Cc1c(C)n(CCN(C)C)c2nc3c(c(N)c12)CCCCC3` [SK01, 1-(2-(dimethylamino)ethyl)-2,3-dimethyl-1,5,6,7,8,9-hexahydrocyclohepta[b]pyrrolo[3,2-e]pyridin-4-amine], the “inhibitory activity against TLR9 activation (TNF-α secretion)” value is “inhibitory ability for TLR7/TLR9 activation was verified; also recorded: specifically inhibit”.

On to `Cc1c(C)n(CCCN(C)C)c2nc3c(c(N)c12)CCCCC3` [SK16, 1-(3-(dimethylamino)propyl)-2,3-dimethyl-1,5,6,7,8,9-hexahydrocyclohepta[b]pyrrolo[3,2-e]pyridin-4-amine], for which the “inhibitory activity against TLR9 activation (TNF-α secretion)” value was “potent inhibitor; also recorded: best inhibitory activity among the structural analogues of SK01; also recorded: specifically inhibit”.

Still in this test, the particulars now being: SK21 to SK82 at 0.5 μM or 2 μM, ODN2395 0.5 μM.
For the compound `Cc1cc2c(N)c3c(nc2n1CCCN(C)C)CCCCCC3` [SK41, 1-(3-(dimethylamino)propyl)-2-methyl-5,6,7,8,9,10-hexahydro-1H-cycloocta[b]pyrrolo[3,2-e]pyridin-4-amine], the “inhibitory activity against TLR9 (level of TNF-α secretion)” value is listed as “significant inhibitory activity; also recorded: significantly reduced”. On to `COc1ccc2c(c1)c1c(N)c3c(nc1n2CCCN(C)C)CCCC3` [SK50, 6-(3-(dimethylamino)propyl)-9-methoxy-2,3,4,6-tetrahydro-1H-indolo[2,3-b]quinolin-11-amine], for which the “inhibitory activity against TLR9 (level of TNF-α secretion)” value was “significant inhibitory activity; also recorded: significantly reduced”. For the compound `Cc1ccc2c(c1)c1c(N)c3c(nc1n2CCCN(C)C)CCCC3` [SK58, 6-(3-(dimethylamino)propyl)-9-methyl-2,3,4,6-tetrahydro-1H-indolo[2,3-b]quinolin-11-amine], the “inhibitory activity against TLR9 (level of TNF-α secretion)” value is “significant inhibitory activity; also recorded: significantly reduced”. On to `COC(=O)c1ccc2c(c1)c1c(N)c3c(nc1n2CCCN(C)C)CCCC3` [SK64, Methyl 11-amino-6-(3-(dimethylamino)propyl)-2,3,4,6-tetrahydro-1H-indolo[2,3-b]quinolin-9-carboxylate], for which the “inhibitory activity against TLR9 (level of TNF-α secretion)” value is given as “significant inhibitory activity; also recorded: significantly reduced”.
